# Source: patent US11220505B2, “5-hydroxytryptamine receptor 7 modulators and their use as therapeutic agents” (Temple University-Of the Commonwealth System of Higher …, priority 2017, dated 2022)
# pIC50: −log10 of the molar value.
# Target: Serotonin 5-HT7 Receptors (Homo sapiens (Human), UniProt P34969)
# Experiment: Radiolabel Binding Studies for Serotonin 5-HT7 Receptors, Method 2 ([3H]-5HT competition; Ki and percent inhibition at 10 μM)
# Details: @ 10 μM single concentration; read-out: 5-HT7 percent inhibition of radioligand binding
# Experimental: Radiolabel Binding Studies for Serotonin 5-HT7 Receptors, Method 2:
# A solution of the compound of the disclosure to be tested is prepared as a 1-mg/ml stock in Assay Buffer or DMSO according to its solubility. A similar stock of the reference compound chlorpromazine is also prepared as a positive control. Eleven dilutions (5×assay concentration) of the compound of the disclosure and chlorpromazine are prepared in the Assay Buffer by serial dilution to yield final corresponding assay concentrations ranging from 10 pM to 10 μM.
# A stock concentration of 5 nM [^3H]-5-Hydroxytryptamine ([^3H]-5HT) is prepared in 50 mM Tris-HCl, 10 mM MgCl2, 1 mM EDTA, pH 7.4 (Assay Buffer). Aliquots (50 μl) of radioligand are dispensed into the wells of a 96-well plate containing […] of Assay Buffer. Duplicate 50-μl aliquots of the compound of the disclosure test and chlorpromazine positive control reference compound serial dilutions are added.
# Membrane fractions of cells expressing recombinant 5HT7 receptors (50 μL) are dispensed into each well. The membranes are prepared from stably transfected cell lines expressing 5HT7 receptors cultured on 10-cm plates by harvesting PBS-rinsed monolayers, resuspending and lysing in chilled, hypotonic 50 mM Tris-HCl, pH 7.4, centrifuging at 20,000×g, decanting the supernatant and storing at −80° C.; the membrane preparations are resuspended in 3 ml of chilled Assay Buffer and homogenized by several passages through a 26 gauge needle before using in the assay.
# The 250-μl reactions are incubated at room temperature for 1.5 hours, then harvested by rapid filtration onto 0.3% polyethyleneimine-treated, 96-well filter mats using a 96-well Filtermate harvester. Four rapid 500-μl washes are performed with chilled Assay Buffer to reduce non-specific binding. The filter mats are dried, then scintillant is added to the filters and the radioactivity retained on the filters is counted in a Microbeta scintillation counter.
# Raw data (dpm) representing total radioligand binding (i.e., specific+non-specific binding) are plotted as a function of the logarithm of the molar concentration of the competitor (i.e., test or reference compound). Non-linear regression of the normalized (i.e., percent radioligand binding compared to that observed in the absence of test or reference compound) raw data is performed in Prism 4.0 (GraphPad Software) using the built-in three parameter logistic model describing ligand competition binding to radioligand-labeled sites: y=bottom+[(top−bottom)/(1+10x−log IC50)] where bottom equals the residual radioligand binding measured in the presence of 10 μM reference compound (i.e., non-specific binding) and top equals the total radioligand binding observed in the absence of competitor. The log IC50 (i.e., the log of the ligand concentration that reduces radioligand binding by 50%) is thus estimated from the data and used to obtain the Ki by applying the Cheng-Prusoff approximation: Ki=IC50/(1+[ligand]/KD) where [ligand] equals the assay radioligand concentration and KD equals the affinity constant of the radioligand for the target receptor.
# Compounds of the disclosure are also screened at a single concentration of 10 μM using the same method described for the Radiolabel Binding Studies for Serotonin 5HT7 receptors to determine the percent inhibition of [^3H]-5HT binding.
# Sequence of Serotonin 5-HT7 Receptors (P34969 whole entry): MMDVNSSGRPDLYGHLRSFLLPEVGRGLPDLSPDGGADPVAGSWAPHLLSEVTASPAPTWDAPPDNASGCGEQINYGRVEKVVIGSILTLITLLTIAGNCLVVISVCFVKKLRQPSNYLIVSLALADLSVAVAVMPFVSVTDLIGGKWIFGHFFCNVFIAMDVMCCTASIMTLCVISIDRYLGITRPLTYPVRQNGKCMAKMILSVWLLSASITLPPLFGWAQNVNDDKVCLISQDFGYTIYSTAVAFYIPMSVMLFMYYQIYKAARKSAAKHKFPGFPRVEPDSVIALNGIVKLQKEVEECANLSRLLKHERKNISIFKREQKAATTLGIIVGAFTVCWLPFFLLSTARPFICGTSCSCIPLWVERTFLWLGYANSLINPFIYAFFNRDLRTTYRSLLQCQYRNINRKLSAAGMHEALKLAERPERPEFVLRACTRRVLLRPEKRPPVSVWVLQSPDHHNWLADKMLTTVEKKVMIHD
row,inhibition at 10 µM [%],Structure (SMILES)
1,44.5,CCC1(CC)CC(CCN2CC3CN(c4ccc(C)cc4)CC3C2)OC1=O (stereo not shown) [Entry 6]
2,48.9,CCC1(CC)CC(CCN2CC3CN(c4cccc(C#N)c4)CC3C2)OC1=O (stereo not shown) [Entry 8]
3,26.3,CCC1(CC)CC(CCN2CC3CN(c4ccc(C#N)cc4)CC3C2)OC1=O (stereo not shown) [Entry 9]
4,24.5,CCC1(CC)CC(CCN2CC3CN(c4ccc(OC)cc4)CC3C2)OC1=O (stereo not shown) [Entry 12]
5,39.8,CCC1(CC)CC(CCN2CC3CN(c4cccc(O)c4)CC3C2)OC1=O (stereo not shown) [Entry 14]

# Same assay, conditions: radiolabel binding, 5HT7 receptors
row,pIC50,Structure (SMILES)
1,7.19,CCC1(CC)CC(CCN2CC3CN(c4ccccc4)CC3C2)OC1=O (stereo not shown) [Entry 1]
2,6.56,CCC1(CC)CC(CCN2CC3CN(c4ccccc4C(C)C)CC3C2)OC1=O (stereo not shown) [Entry 2]
3,6.57,CC(C)c1ccccc1N1CC2CN(CCC3CC4(CCCCC4)C(=O)O3)CC2C1 (stereo not shown) [Entry 3]
4,6.75,CCC1(CC)CC(CCN2CC3CN(c4ccccc4C)CC3C2)OC1=O (stereo not shown) [Entry 4]
5,6.98,CCC1(CC)CC(CCN2CC3CN(c4cccc(C)c4)CC3C2)OC1=O (stereo not shown) [Entry 5]
6,8.05,CCC1(CC)CC(CCN2CC3CN(c4ccccc4C#N)CC3C2)OC1=O (stereo not shown) [Entry 7]
7,6.82,CCC1(CC)CC(CCN2CC3CN(c4ccccc4OC)CC3C2)OC1=O (stereo not shown) [Entry 10]
8,6.04,CCC1(CC)CC(CCN2CC3CN(c4cccc(OC)c4)CC3C2)OC1=O (stereo not shown) [Entry 11]
9,6.64,CCC1(CC)CC(CCN2CC3CN(c4ccccc4O)CC3C2)OC1=O (stereo not shown) [Entry 13]
10,6.89,CCC1(CC)CC(CCN2CC3CN(c4ccc(O)cc4)CC3C2)OC1=O (stereo not shown) [Entry 15]
11,6.80,CCC1(CC)CC(CCN2CC3CN(c4ccccc4N4CCOCC4)CC3C2)OC1=O (stereo not shown) [Entry 16]
